# In US20200069644A1, “NOVEL USE OF A FORMYL PEPTIDE RECEPTOR 2/ LIPOXIN A4 RECEPTOR (FPR2/ALX) AGONIST FOR TREATMENT OF HEART FAILURE” (BRISTOL- MYERS SQUIBB COMPANY, priority 2017, published 2020):
# How the values were obtained:
# Rat FPR1 = target: T1, Rat FPR1 (Rattus norvegicus, UniProt D4A7Q2); experiment: cAMP inhibition, rat FPR1 CHO cells; assay type: cell-based
# T1 construct: expressed in transfected cells; host or cells: CHO
# T1 sequence (D4A7Q2 1-355): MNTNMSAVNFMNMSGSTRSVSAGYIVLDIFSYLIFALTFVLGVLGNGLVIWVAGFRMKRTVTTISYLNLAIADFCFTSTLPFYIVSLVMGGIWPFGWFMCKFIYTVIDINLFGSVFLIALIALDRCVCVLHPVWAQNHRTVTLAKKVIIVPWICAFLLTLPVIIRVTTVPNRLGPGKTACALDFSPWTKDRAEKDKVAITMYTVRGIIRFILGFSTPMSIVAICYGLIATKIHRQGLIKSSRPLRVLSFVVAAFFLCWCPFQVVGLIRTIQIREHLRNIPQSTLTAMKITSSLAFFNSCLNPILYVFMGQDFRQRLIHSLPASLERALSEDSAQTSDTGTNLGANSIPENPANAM
# [1] = system: angiotensin II-induced cardiac fibrosis in mice; experiment: Angiotensin II-induced cardiac fibrosis mouse model; assay type: in vivo; details: 3 mg/kg QD for 3 weeks, P<0.001
# Method: To assess myocardial fibrosis in the setting of non-ischemic heart disease with hypertension, mice were challenged with angiotensin II to stimulate cardiac hypertrophy and left ventricular fibrosis. Mice were administered angiotensin II using subcutaneously implanted osmotic mini-pumps (˜2 mg/kg/day). A separate group of mice were implanted with subcutaneous pumps containing saline (surgical “sham” group); these mice served as control for pump implantation surgery. Mice were treated with Compound 1 (3 mg/kg, QD) or dosing solution without compound (QD, referred to as vehicle) starting 7 days following pump implantation. In this model, cardiac fibrosis development reaches its peak and without treatment, will remain fibrotic at this high level until the angII is depleted (˜4 weeks post implantation). Interventional treatment with Compound 1 to regress cardiac fibrosis was given to mice for 3 weeks. At the end of treatment phase, hearts were removed from animals and evaluated for collagen levels/fibrosis by cross-sectional histology of the hearts.
# Myocardial fibrosis was evaluated in the mouse with continuous angiotensin II challenge administered by subcutaneous osmotic mini-pump. This is a model of non-ischemic heart disease.
# The effect of Compound 1 on regression of established cardiac fibrosis was evaluated in the angiotensin II-induced cardiac fibrosis mouse model. […]
# Rat FPR2 [2] = experiment: cAMP inhibition, rat FPR2 CHO cells; assay type: cell-based; details: CHO cell lines, cAMP
# Rat FPR2 [3] = target: Rat FPR2 (Rattus norvegicus, UniProt A0A8I6AM80); experiment: cAMP inhibition, rat FPR2 CHO cells; assay type: cell-based; details: Rat FPR2
# Sequence of Rat FPR2 (Rattus norvegicus, UniProt A0A8I6AM80) (A0A8I6AM80 1-351): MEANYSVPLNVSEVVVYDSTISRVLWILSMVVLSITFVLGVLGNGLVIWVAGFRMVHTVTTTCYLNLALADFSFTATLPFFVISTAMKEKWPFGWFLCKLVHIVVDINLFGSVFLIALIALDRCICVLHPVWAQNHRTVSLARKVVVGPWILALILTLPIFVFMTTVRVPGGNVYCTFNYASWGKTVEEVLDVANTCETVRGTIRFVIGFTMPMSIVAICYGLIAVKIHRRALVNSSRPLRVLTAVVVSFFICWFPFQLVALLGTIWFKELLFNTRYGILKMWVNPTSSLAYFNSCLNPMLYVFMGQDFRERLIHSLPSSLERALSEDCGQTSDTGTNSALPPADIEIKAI
# Human FPR1 = target: T2, Human FPR1 (Homo sapiens, UniProt P21462); experiment: FPR1 cAMP assay (cAMP inhibition); assay type: cell-based; details: Human FPR1/CHO-A12
# T2 construct: expressed in transfected cells; host or cells: CHO-A12
# T2 sequence (P21462 1-350): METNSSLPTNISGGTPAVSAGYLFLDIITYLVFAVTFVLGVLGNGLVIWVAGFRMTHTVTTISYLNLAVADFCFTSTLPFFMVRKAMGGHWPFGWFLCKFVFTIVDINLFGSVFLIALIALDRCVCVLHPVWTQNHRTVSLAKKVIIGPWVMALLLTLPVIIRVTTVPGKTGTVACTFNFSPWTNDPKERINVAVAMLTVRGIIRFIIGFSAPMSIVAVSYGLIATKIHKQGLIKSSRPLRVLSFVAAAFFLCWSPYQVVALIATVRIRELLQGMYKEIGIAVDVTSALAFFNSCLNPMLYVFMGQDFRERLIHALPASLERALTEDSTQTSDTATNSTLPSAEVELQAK
# Method: A mixture of forskolin (5 μM final for FPR2 or 10 μM final for FPR1) and IBMX (200 μM final) were added to 384-well Proxiplates (Perkin-Elmer) pre-dotted with test compounds in DMSO (1% final) at final concentrations in the range of 0.1 nM to 10 μM. CHO overexpressing human FPR1 or human FPR2 receptors were cultured in F-12 (Ham's) medium supplemented with 10% qualified FBS, 250 μg/ml zeocin and 300 μg/ml hygromycin (Life Technologies). Reactions were initiated by adding 2,000 human FPR2 cells per well or 4,000 human FPR1 cells per well in Dulbecco's PBS (with calcium and magnesium) (Life Technologies) supplemented with 0.1% BSA (Perkin-Elmer). The reaction mixtures were incubated for 30 min at room temperature. The level of intracellular cAMP was determined using the HTRF HiRange cAMP assay reagent kit (Cisbio) according to manufacturer's instruction. Solutions of cryptate conjugated anti-cAMP and d2 flurorophore-labelled cAMP were made in a supplied lysis buffer separately. […] After a 1 h room temperature incubation, time-resolved fluorescence intensity was measured using the Envision (Perkin-Elmer) at 400 nm excitation and dual emission at 590 nm and 665 nm. […] The potency and activity of Compound 1 to inhibit cAMP production was then determined by fitting to a 4-parametric logistic equation from a plot of cAMP level versus compound concentrations. […]
smiles,measurement,setting,value
"COc1cc(F)c([C@@H]2CNC(=O)[C@H]2NC(=O)Nc2ccccc2)c(F)c1 [Compound 1, 1-((3S,4R)-4-(2,6-difluoro-4-methoxyphenyl)-2-oxopyrrolidin-3-yl)-3-phenylurea]",EC50,Rat FPR1,720 nM
same,reduction of left ventricular fibrosis vs. vehicle treatment group,[1]; started 7 days after pump implantation,90%
same,reduction of fibrosis relative to 7-day baseline group,[1],89%
same,selectivity for rat FPR2 vs. FPR1,Rat FPR2 [2],480 fold
same,EC50,Rat FPR2 [3],1.5 nM
same,EC50,Human FPR1,1250 nM
